Data: US8865672B2, “Prevention of tissue ischemia and related methods” (The United States of America, as represented by the …, priority 2006, dated 2014)

Assays:
CD47 = assay: Western analysis of CD47 in human aortic VSMC; type: cell-based; conditions: 48 hours
Description: Human aortic VSMC were plated onto 12-well culture plates (Nunc) at a density of 5×10^4 cells/well in SM-GM+2% FCS and cultured until approximately 90% confluent. A translation-blocking antisense morpholino oligonucleotide complementary to human and murine CD47 ([…]; SEQ ID NO: 21) and a five-base mismatch control (CGTgACAGcCAcGACCgACTGCgCA; SEQ ID NO: 22) were obtained from GeneTools (Philomath, Oreg.). Cultured cells were treated as per the manufacturer's recommendation with morpholinos (10 μM) and utilized within 48 hours of treatment.
Murine VSMC were plated in 12-well culture plates (5×10^4 cells/well) (Nunc) in growth medium and weaned over 48 h of additives and serum and then treated in basic medium with 0.1% BSA. Cells were washed twice with PBS and lysed in 1×SDS sample buffer containing 10 μg/mL leupeptin, 10 μg/mL aprotinin, 1 mM Na3VO4, and 40 mM NaF. Lysates prepared in the SDS sample buffer described above were electrophoresed in 4-12% BisTris NuPAGE gels and transferred to PVDF membranes prior to immunoblotting using a mouse monoclonal CD47 antibody, clone B6H12 (Lab Visions, Fremont, Calif.).

HAVSMC = assay: Actin cytoskeleton staining (F-actin) in HAVSMC; type: cell-based, human
Description: VSMC were grown on glass well slides (Lab-Tek, Nunc) under standard growth conditions. Cells were incubated at 37° C. for 1 hour in serum and additive deficient growth medium and the indicated treatment agents, after which the media was removed and the cells were fixed in 4% paraformaldehyde in PBS (pH 7.4, Fisher Scientific) for 15 minutes at room temperature. After washing with DPBS, cells were permeabilized for 5 minutes in 0.1% Triton X-100 in PBS and then blocked in M199E/2% BSA for 30 min at room temperature. Cells were stained for F-actin with 1 unit/200 μl medium/1% BSA of Oregon Green 488 phalloidin (Molecular Probes). Slides were imaged using an Olympus IX70 microscope and photographed at constant exposure and gain. In other experiments VSMC were plated on 24-well culture plates (Nunc, Denmark) in smooth muscle growth medium (50,000 cells/well) and weaned from serum and additives over 24 hours. Cell treatment was performed with the indicated agents in plain medium with 0.1% BSA for 5 minutes. Wells were processed as described above. Following staining with phalloidin cells were incubated in methanol for 30 minutes, samples aliquoted to 96-well black plates and fluorescence read at 520 nm (excitation 495 nm). Data was normalized to total protein. Results represent the mean±SD of at least three separate experiments.

cGK-I = target: T1, cGK-I (Homo sapiens, UniProt Q13976); assay: cGK in vitro kinase assay of platelet lysates; type: biochemical
T1 construct: endogenous in cells; host or cells: washed human platelets, treated intact, then lysed
T1 sequence (Q13976 1-686 isoform Q13976-2): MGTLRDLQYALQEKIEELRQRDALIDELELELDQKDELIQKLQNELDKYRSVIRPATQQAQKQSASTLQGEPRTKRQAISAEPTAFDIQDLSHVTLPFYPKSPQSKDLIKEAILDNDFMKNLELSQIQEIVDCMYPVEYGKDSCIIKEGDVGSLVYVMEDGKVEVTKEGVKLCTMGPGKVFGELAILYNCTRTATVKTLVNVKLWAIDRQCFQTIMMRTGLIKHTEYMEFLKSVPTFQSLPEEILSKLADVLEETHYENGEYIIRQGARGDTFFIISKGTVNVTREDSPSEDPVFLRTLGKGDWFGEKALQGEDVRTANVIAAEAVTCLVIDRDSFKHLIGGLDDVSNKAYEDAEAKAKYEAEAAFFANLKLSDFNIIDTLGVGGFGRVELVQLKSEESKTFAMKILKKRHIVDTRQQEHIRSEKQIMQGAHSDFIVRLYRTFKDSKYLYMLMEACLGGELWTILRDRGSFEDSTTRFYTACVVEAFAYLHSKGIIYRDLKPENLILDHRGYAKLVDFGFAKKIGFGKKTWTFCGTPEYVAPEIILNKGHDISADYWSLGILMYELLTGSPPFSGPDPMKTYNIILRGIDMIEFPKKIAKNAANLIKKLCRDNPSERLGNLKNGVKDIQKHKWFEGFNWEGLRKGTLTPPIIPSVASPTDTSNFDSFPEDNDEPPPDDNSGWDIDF
Description: Platelets were washed as described above and resuspended in Tyrode's buffer (3×10^8 platelets/mL). Platelets were preincubated with TSP1 (2.2 nM) or Rp-8-pCPT-cGMP for 15 minutes prior to treatment with 8-Br-cGMP (100 μM) or NO (DEA/NO 10 μM) for 2 minutes. Treatment was stopped by placing the platelets on ice. Immediately following treatment, platelets were pelleted by centrifugation at 13,000×g at 4° C. for 15 seconds and resuspended in a lysis buffer containing 10 mM HEPES (pH 7.4), 1 mM EDTA, 1 mM 3-Isobutyl-1-methylxanthine, 125 mM KCl, 1 mM phenylmethysulfonylfluoride, 1 μg/ml aprotinin, and 1 μg/ml leupeptin. Resuspended platelets were sonicated on ice 3 times for 10 seconds each before centrifugation at 13,000×g for 5 minutes at 4° C. 100 μg lysate from each sample was incubated at 25° C. for 20 minutes with kinase buffer (150 μM Arg-Lys-Arg-Ser-Arg-Ala-Glu (SEQ ID NO: 17) peptide substrate (Bachem, King of Prussia, Pa.)), 10 mM HEPES pH 7.4, 35 mM β-glycerophosphate, 4 mM MgCl2, 5 μM Rp-8 pCPT-cAMPS, 0.5 mM EDTA, […] [γ-32P]ATPS (Sigma-Aldrich, St. Louis, Mo.)). Kinase assay reactions were terminated by spotting 50 μL of reaction mixture onto nitrocellulose. Nitrocellulose spots were washed 5 times each with 100 μL of 0.5% phosphoric acid before analysis with a scintillation counter.

[1] = tested on: white hairless Yucatan miniature pig VSMC; assay: Porcine VSMC adhesion assay; type: cell-based; conditions: TSP1 0.022-2.2 nM
Description: White hairless Yucatan miniature pig VSMC were plated at 10,000 cells/well onto 96-well plates (Maxisorb, Nunc) precoated with type I collagen (3 μg/ml). Cells were incubated for 1 h in basal medium (lacking additives and serum) with 0.1% BSA and the indicated concentrations of TSP1 and DEA/NO. Plates were then washed with PBS, fixed with glutaraldehyde, stained with crystal violet, and washed. Absorbed stain was solubilized with acetic acid from fixed cells and the resulting color signal determined on a MR580Microelisa Auto Reader, (Dynatech, Alexandria, Va.) at 450 nm wavelength. In other experiments cell were treated with a CD47 or mismatch control morpholino as described for 48 h prior to harvesting.

32P-incorporation into cGK-I selective peptide (cGK-I; activation via sGC using DEA/NO in intact platelets)	32P incorporation into cGK-I selective peptide (cGK-I; stimulated by 100 μM 8Br-cGMP, TSP1 2.2 nM)	Substance	CD47 protein (Western) (CD47)	NO-induced actin disassembly (HAVSMC; DEA/NO 10 μM)	disassembly of S1P-induced F actin by NO (HAVSMC; S1P 100 nM, DEA/NO 10 μM)	F-actin levels (HAVSMC; agent alone (TSP1 2.2 nM, S1P 100 nM))	NO-stimulated adhesion to type I collagen [1]
–	–	CGTCACAGGCAGGACCCACTGCCCA (all phosphorodiamidate morpholino (PMO)) [CD47 morpholino]	dose dependent decrease in CD47 protein	–	–	–	–
prevented	inhibited 32P incorporation	TSP1: thrombospondin-1 prepared from human platelets	–	completely prevented actin disassembly by NO	attenuated	slightly increased F-actin levels	inhibited
